{"source": "patent US11918577B2", "about": "“Dipeptidyl peptidase-4 inhibitors for topical eye treatment of retinal neurodegenerative diseases” (FUNDACIÓ HOSPITAL UNIVERSITARI VALL D'HEBRON - INSTITUT DE …, priority 2016, dated 2024)", "key": {"db/db mouse [1]": {"tested_on": "db/db mouse", "test": "Glial activation (GFAP staining score) in retina of db/db mice, eye drops", "format": "in vivo", "details": "for GFAP score of the treated mice / reactive gliosis: eye drops for two weeks; for GFAP score of the treated mice: all cases, scale 1-5; for reactive gliosis: vs vehicle", "description": "(§1) It has been reported that db/db mice reproduce the features of the neurodegenerative process that occurs in the human diabetic eye. Therefore, it is an appropriate model for testing neuroprotective drugs (according to Bogdanov et al., “The db/db mouse: a useful model for the study of diabetic retinal neurodegeneration”, PLoS One—2014, vol. no. 9(5):e97302). A total of 20 male db/db (BKS.Cg-+Lepr db/+Lepr db/OlaHsd) mice aged 10 weeks were purchased from Harlan Laboratories, Inc. In addition, 10 non-diabetic (db/+) mice matched by age were used as control group.\n(§2) This study was approved by the Animal Care and Use Committee of VHIR (Vali d′Hebron Research Institute). All the experiments were performed in accordance with the tenets of the European Community (86/609/CEE) and ARVO (Association for Research in Vision and Ophthalmology).\nGlial activation was evaluated by Laser Scanning Confocal microscopy using specific antibodies against GFAP (Glial fibrillar acidic protein). Sections were fixed in acid methanol (−20° C.) for 2 min, followed by three washes with PBS, 5 min each. Sections were permeabilized with TBS-Triton X-100 0.025% and were incubated in blocker (1% BSA, and 10% goat serum in PBS) for 2 hours at room temperature. Sections were then incubated with rabbit anti-GFAP (Abcam Ltd, Cambridge, U.K.) (1:500 dilution prepared in blocking solution) overnight at 4° C. in a humid atmosphere. After three washes in PBS, 5 min each, the sections were incubated with secondary antibody Alexa 488 goat-anti-rabbit (Invitrogen) (1:200 dilution prepared in blocking solution). The sections were washed three times in PBS, counterstained with Hoestch and mounted with Mounting Medium Fluorescence (Prolong, Invitrogen) and mounted with a coverslip. Comparative digital images from samples were recorded with a Fluoview FV 1000 Laser Scanning Confocal Microscope Olympus using identical brightness and contrast settings.\nTo evaluate the degree of glial activation it was used a scoring system based on the extent of GFAP staining previously described (Anderson et al., “Glial and endothelial blood-retinal barrier responses to amyloid-beta in the neural retina of the rat”, Clin Ophthalmol—2008, vol. no. 2, pp.:801-816). This scoring system was as follows: Müller cell endfeet region/GCL only (score 1); Müller cell endfeet region/GCL plus a few proximal processes (score 2); Müller cell endfeet plus many processes, but not extending to ONL (score 3); Müller cell endfeet plus processes throughout with some in the ONL (score 4); Müller cell endfeet plus lots of dark processes from GCL to outer margin of ONL (score 5).\nThe scoring system was as follows: Müller cell endfeet region/GCL only (score 1); Müller cell endfeet region/GCL plus a few proximal processes (score 2); Müller cell endfeet plus many processes, but not extending to ONL (score 3); Müller cell endfeet plus processes throughout with some in the ONL (score 4); Müller cell endfeet plus lots of dark processes from GCL to outer margin of ONL (score 5). n=10 mice per group (5 retinal sections per mice).\n(§3) The design and methodology were the same than used in Example 2."}, "[2]": {"tested_on": "GLAST (glutamate-aspartate transporter)", "test": "GLAST immunofluorescence in retina of db/db mice, eye drops", "format": "in vivo, mouse", "description": "as §1, §2\nGLAST (glutamate-aspartate transporter), the main glutamate transporter, was evaluated by fluorescence microscopy using specific antibodies. GLAST was evaluated by fluorescence microscopy using specific antibodies [rabbit anti-GLAST (EAAT1) (1:100, Abcam ab416, Cambridge, UK).\nas §3"}, "db/db mouse [3]": {"tested_on": "db/db mouse", "test": "Retinal glutamate quantification (UPLC) in db/db mice, eye drops", "format": "in vivo", "details": "p<0.05", "description": "as §1, §2\nQuantification of glutamate was performed by reverse phase ultra-performance liquid chromatography (UPLC) (Acquity-UPLC, Waters) as aminoquinoline derivatives (AccQ-Tag chemistry, MassTrak AAA method and instruments, Waters, Milford, MA).\nas §3"}, "db/db mouse [4]": {"tested_on": "db/db mouse", "test": "Full field electroretinography (ERG) in db/db mice, eye drops", "format": "in vivo", "procedure": "Full field electroretinography (ERG) recordings were measured using the Ganzfeld ERG platform (Phoenix Research Laboratories, Pleasanton, CA) following ISCEV (International Society for Clinical Electrophysiology of Vision) recommendations (according to Marmor et al., “Standard for clinical electroretinography.”, International Society for Clinical Electrophysiology of Vision (2004), Doc Ophthalmol—2004; vol. 108, pp.:107-114)."}, "db/db mouse [5]": {"tested_on": "db/db mouse", "test": "Blood-retinal barrier: albumin leakage (Evans blue, albumin immunofluorescence) in db/db mice, eye drops", "format": "in vivo", "details": "for albumin leakage (extravasation of albumin): vs vehicle", "description": "as §1, §2\n(§4) In the lower panel FIG. 6(B) the quantification of albumin immunofluorescence of digital images with Fluoview FV 1000 Laser Scanning Microscope is shown. Immunohistochemistry images of Fluoview FV 1000 Laser Scanning Microscope from which quantification of albumina (in red) was done are not shown. The three type of samples tested were: D-Sham, D-SAXAGLIPTIN and C (db/+). Results are the mean±SD. *p <0.05 between db/db treated with vehicle (D-Sham) and the other groups.\nas §3\nas §4, with “9(B)” for “6(B)”, “D-Sitagliptin” for “D-SAXAGLIPTIN”, “*p<0.05” for “*p <0.05”"}, "[6]": {"tested_on": "GLP-1 and its main downstream messenger cAMP", "test": "Intraretinal content of GLP-1 and cAMP in db/db mice, eye drops (data not shown)", "format": "in vivo, mouse", "description": "Without being bound to any theory, inventors consider that, in fact, the DPP-4 inhibitors themselves activate unrelated downstream GLP-1R pathways that might be involved in neuroprotection."}, "db/db mouse [7]": {"tested_on": "db/db mouse", "test": "Retinal apoptosis (TUNEL) in db/db mice, eye drops", "format": "in vivo", "details": "eye drops for two weeks, ONL, INL, GCL, vs vehicle", "description": "as §1, §2\nThe TUNEL (Terminal Transferase dUTP Nick-End Labeling) staining was carried out using the DeadEnd Fluorometric TUNEL System kit (PROMEGA, Madison, WI, USA). Cryosections of retina were permeabilised by incubation for 2 min on ice with 0.1% Triton X-100 in 0.1% sodium citrate, freshly prepared. The secondary antibody was Alexa 488 goat-anti-rabbit (Invitrogen, San Diego CA, USA). For evaluation by Laser Scanning Confocal microscopy the excitation wavelength was 488 nm and detection in the range of 515-565 nm (green) was used. […]"}, "db/db mice": {"tested_on": "db/db mice", "details": "orally administered, diabetic mice (db/db); cited from earlier work"}, "[8]": {"details": "administered in the form of eye drops; cited from earlier work"}, "C. Elegans": {"tested_on": "C. Elegans", "details": "high glucose levels, no GLP-1R expression; cited from earlier work"}}, "data": [{"molecule": "N[C@@H](CC(=O)N1CCn2c(nnc2C(F)(F)F)C1)Cc1cc(F)c(F)cc1F", "note": "[Sitagliptin, (R)-4-oxo-4-[3-(trifluoromethyl)-5,6-dihydro[1,2,4]triazolo[4,3-a]pyrazin-7(8H)-yl]-1-(2,4,5-trifluorophenyl)butan-2-amine]", "values": [{"measurement": "GFAP score of the treated mice", "setting": "db/db mouse [1]", "value": "≤ 3"}, {"measurement": "reactive gliosis", "setting": "db/db mouse [1]", "value": "significant decrease"}, {"measurement": "GFAP score distribution (Table 2), score 1", "setting": "db/db mouse [1]; sitagliptin eye drops for two weeks, score 1", "value": 85.00}, {"measurement": "GFAP score distribution (Table 2), score 2", "setting": "db/db mouse [1]; sitagliptin eye drops for two weeks, score 2", "value": 10.00}, {"measurement": "GFAP score distribution (Table 2), score 3", "setting": "db/db mouse [1]; sitagliptin eye drops for two weeks, score 3", "value": 5.00}, {"measurement": "GFAP score distribution (Table 2), score 4", "setting": "db/db mouse [1]; sitagliptin eye drops for two weeks, score 4", "value": 0.00}, {"measurement": "GFAP score distribution (Table 2), score 5", "setting": "db/db mouse [1]; sitagliptin eye drops for two weeks, score 5", "value": 0.00}, {"measurement": "downregulation of GLAST induced by diabetes", "setting": "[2]", "value": "abrogating the downregulation of GLAST"}, {"measurement": "retinal glutamate concentration vs diabetic mice treated with vehicle", "setting": "db/db mouse [3]", "value": "prevented glutamate accumulation"}, {"measurement": "functional abnormalities measured by ERG", "setting": "db/db mouse [4]", "value": "prevented functional abnormalities"}, {"measurement": "sealing function of the BRB", "setting": "db/db mouse [5]", "value": "preserved the sealing function of the BRB"}, {"measurement": "albumin leakage (extravasation of albumin)", "setting": "db/db mouse [5]", "value": "prevented albumin leakage"}, {"measurement": "intraretinal content of GLP-1", "setting": "[6]", "value": "significant increase"}, {"measurement": "intraretinal content of cAMP", "setting": "[6]", "value": "significant increase"}, {"measurement": "apoptosis (TUNEL positive cells) in retinal layers", "setting": "db/db mouse [7]", "value": "significant prevention of apoptosis in all retinal layers"}]}, {"molecule": "N[C@@H](CC(=O)N1CCc2c(nc(C(F)(F)F)nc2C(F)(F)F)C1)CN1CC(F)(F)CCC1=O", "note": "[Gemigliptin, (3S)-3-amino-4-(5,5-difluoro-2-oxopiperidino)-1-[2,4-di(trifluoromethyl)-5,6,7,8-tetrahydropyrido[3,4-d]pyrimidin-7-yl]butan-1-one]", "values": [{"measurement": "retinal pericyte apoptosis", "setting": "db/db mice", "value": "ameliorate"}, {"measurement": "vascular leakage", "setting": "db/db mice", "value": "ameliorate"}]}, {"molecule": "N#C[C@@H]1C[C@@H]2C[C@@H]2N1C(=O)[C@@H](N)C12CC3CC(CC(O)(C3)C1)C2", "note": "[Saxagliptin, (1S,3S,5S)-2-[(2S)-2-amino-2-(3-hydroxy-1-adamantyl)acetyl]-2-azabicyclo[3.1.0]hexane-3-carbonitrile]", "values": [{"measurement": "GFAP score of the treated mice", "setting": "db/db mouse [1]", "value": "< 3"}, {"measurement": "reactive gliosis", "setting": "db/db mouse [1]", "value": "significant decrease"}, {"measurement": "% positive GFAP labeling, score 1", "setting": "db/db mouse [1]; eye drops twice daily for 14 days, score 1: Müller cell endfeet region/GCL only", "value": 95.00, "unit": "%"}, {"measurement": "% positive GFAP labeling, score 2", "setting": "db/db mouse [1]; eye drops twice daily for 14 days, score 2: endfeet region/GCL plus a few proximal processes", "value": 5.00, "unit": "%"}, {"measurement": "% positive GFAP labeling, score 3", "setting": "db/db mouse [1]; eye drops twice daily for 14 days, score 3: endfeet plus many processes, not extending to ONL", "value": 0.00, "unit": "%"}, {"measurement": "% positive GFAP labeling, score 4", "setting": "db/db mouse [1]; eye drops twice daily for 14 days, score 4: endfeet plus processes throughout with some in the ONL", "value": 0.00, "unit": "%"}, {"measurement": "% positive GFAP labeling, score 5", "setting": "db/db mouse [1]; eye drops twice daily for 14 days, score 5: lots of dark processes from GCL to outer margin of ONL", "value": 0.00, "unit": "%"}, {"measurement": "downregulation of GLAST induced by diabetes", "setting": "[2]", "value": "prevented"}, {"measurement": "retinal glutamate concentration vs diabetic mice treated with vehicle", "setting": "db/db mouse [3]", "value": "significantly lower"}, {"measurement": "albumin leakage (extravasation of albumin)", "setting": "db/db mouse [5]", "value": "prevented albumin leakage"}, {"measurement": "intraretinal content of GLP-1", "setting": "[6]", "value": "significant increase"}, {"measurement": "intraretinal content of cAMP", "setting": "[6]", "value": "significant increase"}, {"measurement": "apoptosis (TUNEL positive cells) in retinal layers", "setting": "db/db mouse [7]", "value": "significant prevention of apoptosis in all retinal layers"}]}, {"molecule": "Cc1cc(-c2cc(O)ccc2Cl)cc2nnc(Nc3ccc(OCCN4CCCC4)cc3)nc12", "note": "[TG100572, 4-chloro-3-(5-methyl-3-{[4-(2-pyrrolidin-1-ylethoxy)phenyl]amino}-1,2,4-benzotriazin-7-yl)phenol]", "values": [{"measurement": "reaching the target in the retina", "setting": "[8]", "value": "able to reach the target in the retina"}]}, {"molecule": "CC#CCn1c(N2CCC[C@@H](N)C2)nc2c1c(=O)n(Cc1nc(C)c3ccccc3n1)c(=O)n2C", "note": "[Linagliptin, 8-[(3R)-3-aminopiperidin-1-yl]-7-(but-2-yn-1-yl)-3-methyl-1-[(4-methylquinazolin-2-yl)methyl]-3,7-dihydro-1H-purine-2,6-dione]", "values": [{"measurement": "neuroprotective effect", "setting": "C. Elegans", "value": "neuroprotective effect"}]}]}
